Reference: patent publication US20150148234A1, “HERBICIDE-RESISTANT SUNFLOWER PLANTS WITH MULTIPLE HERBICIDE RESISTANT ALLELES OF AHASL1 AND METHODS OF USE” (NIDERA S.A., priority 2013, published 2015)

Tests used:
[1] = tested on: AHAS enzyme of WT line (B7); assay: AHAS enzyme activity assay, Sets 1 and 2; format: biochemical, sunflower; settings: 100 μM
Method: Twelve greenhouse grown sunflower plants from each of the lines depicted in Table 21 were bulked and subjected to an AHAS enzyme activity assay via the method of Singh et al. (1988) Anal. Biochem. 171:173-179. Each activity assay was repeated twice. Due to the large number of samples, the experiment was split into two sets (Table 21).
Young, actively growing leaves, from four week old plantlets, were ground in a mortar and pestle with liquid N2 and extracted with a buffer composed of 100 mM Pyruvate, 200 mM KH2PO4, 20 mM MgCl2, 2 mM thiamine pyrophosphate and […]. Plant extracts were then spun through a 10 mL Zeba™ TM desalt spin column (Pierce #89893) as per the manufacturer's recommendation. The inhibition assay was performed as described by Singh et al. (1988) Anal. Biochem. 171:173-179. Assays were conducted in a 96-well format. Fifty μl of inhibitor was added to each well containing 50 μl of soluble protein extract to give final concentrations of 0.78, 1.56, 3.125, 6.25, 12.5, 25, 50 and 100 μM imazamox or 0.78, 1.56, 3.125, 6.25, 12.5, 25, 50 and 100 μM imazapyr. Zero herbicide controls were also included for each line. […] Absorbance was measured at 530 nm. AHAS activity, expressed as the mean of the absorbance values for each treatment, was presented as a percentage of the mean of the zero-herbicide controls.

[2] = tested on: sunflower line VB141 (high oleic); assay: tolerance to imidazolinones, greenhouse (Example 8)
[3] = tested on: sunflower hybrid H2 (L3*L4), 122/122; assay: field trial, imazapyr at V8 or R1 stage (Example 4); settings: H2 122/122
[4] = tested on: sunflower line HA445 (high oleic); assay: tolerance to imidazolinones, greenhouse (Example 8)
[5] = tested on: sunflower line OB712 (high oleic); assay: as above
[6] = tested on: sunflower hybrid H5 (L3 x WT), 122/Wild type; assay: field trial, imazapyr at V8 or R1 stage (Example 4); settings: H5 122/Wild type
[7] = tested on: sunflower line BTI-OL-M1709; assay: tolerance to imidazolinones, greenhouse (Example 8); settings: 160 gr/ha at V4, fourteen days after treatment
[8] = tested on: sunflower line BTI-OL-2201; assay: as above; settings: 160 gr/ha at V4, fourteen days after treatment
[9] = tested on: lines carrying at least one allele A122T (A122T/A122T, A122T/A205V, A122/WT); assay: field trial, imazapyr at V8 or R1 stage (Example 4); settings: 160 g ai/ha applied at R1; 14 DAT
[10] = tested on: sunflower line BTI-OL-M1511; assay: tolerance to imidazolinones, greenhouse (Example 8); settings: 160 gr/ha at V4, fourteen days after treatment
[11] = tested on: sunflower line GM40 (A122T); assay: as above; settings: 160 gr/ha at V4, fourteen days after treatment
[12] = tested on: sunflower hybrid H6 (L1 * WT), 205/wild type; assay: field trial, imazapyr at V8 or R1 stage (Example 4); settings: H6 205/wild type
[13] = 160 gr/ha at V4, fourteen days after treatment
[14] = 160 g ai/ha applied at R1, 14 DAT
[15] = 160 g ai/ha applied at R1, 21 DAT
[16] = 160 g ai/ha applied at V8, 14 DAT
[17] = 160 g ai/ha applied at V8, 21 DAT

SMILES: COCc1cnc(C2=NC(C)(C(C)C)C(=O)N2)c(C(=O)O)c1 (stereo not shown) [imazamox]
- AHAS activity, % of untreated control ([1]; Set 1 (FIG. 13)): 17%
- AHAS activity, % of untreated control ([1]; Set 2 (FIG. 14)): 11%

SMILES: CC(C)C1(C)N=C(c2ncccc2C(=O)O)NC1=O (stereo not shown) [imazapyr]
- outcome of the herbicide treatment ([2]; 160 gr/ha at V4): killed
- Mean Phytotoxicity Index (0-9) [2, 13]: 8.5
- Mean Phytotoxicity Index (0-50) [3, 14]: 2.3
- Mean Phytotoxicity Index (0-50) [3, 15]: 1.7
- Mean Phytotoxicity Index (0-50) [3, 16]: 5
- Mean Phytotoxicity Index (0-50) [3, 17]: 1
- outcome of the herbicide treatment ([4]; 160 gr/ha at V4): killed
- Mean Phytotoxicity Index (0-9) [4, 13]: 8.8
- outcome of the herbicide treatment ([5]; 160 gr/ha at V4): killed
- Mean Phytotoxicity Index (0-9) [5, 13]: 9
- Mean Phytotoxicity Index (0-50) [6, 14]: 11.7
- Mean Phytotoxicity Index (0-50) [6, 15]: 23.3
- Mean Phytotoxicity Index (0-50) [6, 16]: 15
- Mean Phytotoxicity Index (0-50) [6, 17]: 5
- Mean Phytotoxicity Index (0-9) [7]: 0.2
- Mean Phytotoxicity Index (0-9) [8]: 0.2
- PI (0-50), group with chlorosis symptoms only [9]: less than 11.7
- Mean Phytotoxicity Index (0-9) [10]: 0.5
- Mean Phytotoxicity Index (0-9) [11]: 0.2
- Mean Phytotoxicity Index (0-50) [12, 14]: 40
- Mean Phytotoxicity Index (0-50) [12, 15]: 48.3
- Mean Phytotoxicity Index (0-50) [12, 16]: 5
- Mean Phytotoxicity Index (0-50) [12, 17]: 5
